# Measurements taken from US20060041022A1, “Treatment of amyotrophic lateral sclerosis with nimesulide” (priority 2002, published 2006).
# Read-outs that look alike come from different tables or passages of the source.
# Columns and labels:
# [1] = system: 4.8 kDa protein (also 5.3 and 5.7 kDa proteins) in spinal cord of SOD1 mice
# Description: (§1) Mice Studies were performed on 8 week old female mice overexpressing mutated human superoxide dismutase (codon 93 glycine→alanine G93A (TgN[SOD1-G93A]1Gur(Gurney et al., 1994, Science 264(5166):1772-1775) Jackson Laboratory, Bar Harbor, Me.; “SDO1 mice”) and their wild type littermates. Mice were housed on a 12 hour day/light cycle and (beginning at 45 d of age) allowed ad libitum access to either nimesulide (NMS)-supplemented (19 g/10 kg) chow, delivering ˜[…] per day to the animal, or, as a control, plain NIH-07 formula cold press chow processed into identical ½ inch pellets (Zeigler Bros Inc, Garners, Pa.). Genotyping was conducted at 21 days of age as described in Gurney et al., 1994, Science 264(5166):1772-1775.
# (§2) Pathology examination. To evaluate molecular changes during the period of therapeutic efficacy of NMS, a sub group of mice were sacrificed by cervical dislocation 95-105 d of age. Blood, brain and lumbar spinal cord samples were then rapidly harvested and prepared for analysis.
# SOD1 mutant mice [2] = system: SOD1 mutant mice
# Description: as §1
# (§3) Rotarod and Grid Walking Tests. To assess balance, coordination and muscle strength mice were tested on the accelerating rotarod (7650 Ugo Basile Biol. Res. App., Italy) and grid walking tests. […] For the grid walking test, animals were placed into the distal end of a walled chamber (15 cm W×60 cm L, 20 cm high walls and a wire mesh bottom) suspended 1 meter above the floor. The number of foot misses (entire paw and portion of limb pokes through the wire mesh) while crossing a distance of 60 cm was recorded.
# [3] = geriatric patients, periods greater than two years; cited from earlier work
# SOD1 mutant mice [4] = system: SOD1 mutant mice; remark: listed apart in the source
# Description: as §1, §3
# [5] = for effect on weight: SOD1 or wild type mice, nimesulide diet vs normal diet, weighed weekly
# Description: as §1
# Health/Neurologic Status. To assess health status mice were weighed weekly and examined for changes in lacrimation/salivation, palpebral closure, ear twitch and pupillary responses, whisker orienting, postural and righting reflexes and Body Condition Score (BCS) (Ullman-Cullere 1999). Finally, a general pathological examination was conducted at time of sacrifice.
# Prostaglandin E2 = conditions: SOD1 (or WT) mice, prophylactic nimesulide in the diet, FIG. 4B
# Description: as §1, §2
# Nimesulide and Prostaglandin E2. […] Prostaglandin-E2 expression in the left caudal hemisphere of the brain (including substantia nigra, and motor cortex) was measured by immuno-assay (Cayman Ann Arbor, Mich.), which was performed as follows. […]
# in vivo = conditions: for Kp: female, mouse, brain (cerebral cortex parenchyma) relative to serum, oral
# Description: as §1, §2
# Nimesulide and Prostaglandin E2. […] Prostaglandin-E2 expression in the left caudal hemisphere of the brain (including substantia nigra, and motor cortex) was measured by immuno-assay (Cayman Ann Arbor, Mich.), which was performed as follows. Briefly, pulverized brain tissue stored in liquid N2 was homogenized in 0.1M phosphate-buffered saline (containing 1 mM EDTA and 10 μM indomethacin), mixed with an equal volume of ethanol, and centrifuged. The supernatant was diluted with 50 mM acetic buffer and purified through an affinity column (Cayman). The column was equilibrated with column buffer (0.1M phosphate-buffered saline, 7.7 mM NaN3, 0.5 M […]) followed by UltraPure water, the supernatant was then eluted from the 4 ml column by adding the elution solution and allowing it to pass through the packing material. The eluate was then evaporated and re-dissolved in enzyme-linked immunoassay buffer, applied to a 96-well plate pre-coated with goat anti-mouse IgG and incubated with PGE2 monoclonal antibody and (recovery tracer) for 18 hr at 4° C. […]
# [6] = SOD1 mice on NMS diet, control diet mean onset at 108 days
structure (smiles),measurement,setting,value
"CS(=O)(=O)Nc1ccc([N+](=O)[O-])cc1Oc1ccccc1 [nimesulide, 4-nitro-2-phenoxymethanesulfonanilide]",level of approximately 4.8 kDa protein (negatively charged at pH 9) in spinal cord,"[1]; SOD1 mice with NMS treatment, prior to onset of motor impairment, FIGS. 3A and B",regulated back to control levels
same,levels of approximately 5.3 and 5.7 kDa proteins,"[1]; SOD1 mice, lumbar spinal cord, proteins increase with disease progression",decrease
same,onset of impairment relative to untreated counterparts,"SOD1 mutant mice [2]; NMS-treated SOD1 mice, rotarod and grid walking tests",significant delay
same,age until which motor skill integrity was exhibited,SOD1 mutant mice [2]; [6],120 days of age
same,delay in the onset of motor impairment,"SOD1 mutant mice [2]; SOD1 mice, nimesulide-supplemented chow vs control diet, n=6, P<0.05, FIG. 1",10 days
same,tolerability,[3],well tolerated
same,age until which motor skill integrity was exhibited,SOD1 mutant mice [4]; [6],124 days of age
same,motor ability maintained beyond SOD1 mice fed control diet,"SOD1 mutant mice [4]; SOD1 mice, nimesulide diet, n=6, P<0.05 on days 113, 115, 122, 124, FIG. 2",10 days
same,effect on weight,[5],No detectable difference
same,effect on weight,[5]; listed as NMS,no effect
same,health/neurologic tests,"[5]; all groups, SOD1 groups showed decreased BCS and impaired reflexes after hind limb paralysis",unremarkable
same,PG-E2 content,Prostaglandin E2,decreased
same,nimesulide concentration in serum,"in vivo; delivery through feeding, 2-3 months treatment, at onset of bilateral hind-limb paralysis, FIG. 4A",approximately 30 μM
same,Kp,in vivo; TgN[SOD1-G93A]1Gur (SOD1-G93A transgenic),~0.1
same,Kp,in vivo,0.1
